Measurements as given in patent US6887873B2, “Triazine derivatives and their application as antitelomerase agents” (Aventis Pharma S.A., priority 2001, dated 2005).
pIC50: −log10 of the molar value. Where two headings read alike, the source gives them in different places.

Tests used:
[1] = system: G-quadruplex of oligonucleotide GGGTTAGGGTTAGGGTTAGGG (3.5 repeats of the human telomereic motif); assay: G-quadruplex stabilizing activity, fluorescence Tm (FAM+DABCYL oligonucleotide); assay type: binding
Method in brief: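 FAM/DABCYL-labelled telomeric oligonucleotide (0.2 μM strand) in 10 mM sodium cacodylate pH 7.6 with 0.1 M LiCl (or NaCl) was annealed, then incubated ≥1 h at 20 °C with compound at 1 μM final. Samples were heated 20→80 °C, with excitation at 470 nm and emission at 515/588 nm. Tm is the 515 nm emission midpoint.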

A549 cells = assay: Cytotoxic activity on human tumour line A549, neutral red, 96 hours; assay type: cell-based; settings: read-out: Cytotox. A549 IC50
Procedure: The cytotoxic biological activity on human tumour lines is determined according to the following experimental protocol:
The human cell lines A549 are obtained from ATCC (American Type Culture Collection, Rockville, USA). The A549 cells are cultured in a layer in a culture flask in RPMI 1640 medium containing L-glutamine at 2 mM, penicillin 200 U/ml, streptomycin 200 μg/ml and supplemented with 10% heat-inactivated foetal calf serum. The KB cells are cultured in a layer in a culture flask in Dulbelco's medium containing L-glutamine at 2 mM, penicillin 200 U/ml, streptomycin 200 μg/ml and supplemented with 10% heat-inactivated foetal calf serum.
The cells at the exponential growth phase are trypsinized, washed in 1×PBS and are inoculated in 96-well microplates (Costar) in an amount of 4×10^4 cells/ml for A549 and of 1.5×10^4 cells/ml (0.2 ml/well) and then incubated for 96 hours in the presence of variable concentrations of product to be studied (10, 1, 0.1 and 0.01 μM, each point in quadruplicate). 16 hours before the end of the incubation, 0.02% final of neutral red is added to each well. At the end of the incubation, the cells are washed with 1×PBS and lysed with 1% sodium lauryl sulphate. The cellular incorporation of the dye, which reflects cellular growth, is evaluated by spectro-photometry at a wavelength of 540 nm for each sample with the aid of a Dynatech MR5000 reading apparatus.
For each compound concentration tested, the results are expressed as percentage of inhibition of cellular growth and calculated from the untreated control and the culture medium free of cells (blank) according to the following formula: (compound value−blank value/cell control value−blank value)×100.
The concentration of compound inducing a 50% inhibition of growth (IC50) is determined with the aid of a semilogarithmic graphical representation of the inhibition values obtained as a function of each of the compound concentrations tested.
A compound is considered to be active as cytotoxic agent if the concentration inhibiting the growth of the tumour cells tested by 50% is in particular less than 10 μM.

| SMILES | G4 delta Tm [1] [°C] | pIC50 (A549 cells; Homo sapiens, A549, A549) | pIC50 (A549 cells; A549) |
| --- | --- | --- | --- |
| Cc1cc(N(C)C)c2cc(Nc3nc(Nc4ccc5nc(C)cc(N(C)C)c5c4)nc(N(C)C4CCN(C)CC4)n3)ccc2n1 [Example 138, 2,4-bis(4-dimethylamino-2-methylquinolin-6-yl)amino-6-[N-(1-methylpiperidin-4-yl)-N-methylamino]-[1,3,5]triazine] | 16 | 7.21 |  |
| Cc1cc(N(C)C)c2cc(Nc3nc(Nc4ccc5nc(C)cc(N(C)C)c5c4)nc(N4CCCN(CCCN5CCCC5)CC4)n3)ccc2n1 [Example 139] | 18.5 | 7.35 |  |
| Cc1cc(N(C)C)c2cc(Nc3nc(NCCN4CCN(Cc5ccccc5)CC4)nc(Nc4ccc5nc(C)cc(N(C)C)c5c4)n3)ccc2n1 [Example 140] | 5.5 | 6.29 |  |
| Cc1cc(N(C)C)c2cc(Nc3nc(Nc4ccc5nc(C)cc(N(C)C)c5c4)nc(N4CCN(CCOCCO)CC4)n3)ccc2n1 [Example 141, 2,4-bis(4-dimethylamino-2-methylquinolin-6-yl)amino-6-{[1-2-(2-hydroxyethyl)oxyethyl]piperazin-4-yl}-[1,3,5]triazine] | 7 | 7.02 |  |
| Cc1cc(N(C)C)c2cc(Nc3nc(NCC[N+](C)(C)C)nc(Nc4ccc5nc(C)cc(N(C)C)c5c4)n3)ccc2n1 [Example 142] | 9.5 | 5.81 |  |
| Cc1cc(N(C)C)c2cc(Nc3nc(Nc4ccc5nc(C)cc(N(C)C)c5c4)nc(N4CCN(C5CCCC5)CC4)n3)ccc2n1 [Example 143] | 13 | 6.28 |  |
| Cc1cc(N(C)C)c2cc(Nc3nc(Nc4ccc5nc(C)cc(N(C)C)c5c4)nc(N4CCN(c5ccncc5)CC4)n3)ccc2n1 [Example 144, 2,4-bis(4-dimethylamino-2-methylquinolin-6-yl)amino-6-[1-(pyridin-4-yl)piperazin-4-yl]-[1,3,5]triazine] | 22.5 | 7.40 |  |
| Cc1cc(N(C)C)c2cc(Nc3nc(NCc4ccncc4)nc(Nc4ccc5nc(C)cc(N(C)C)c5c4)n3)ccc2n1 [Example 145] | 5 |  | 6.38 |
| CCN(CCN(C)C)c1nc(Nc2ccc3nc(C)cc(N(C)C)c3c2)nc(Nc2ccc3nc(C)cc(N(C)C)c3c2)n1 [Example 146] | 6 | 6.76 |  |
| CC1=NCCN1c1nc(Nc2ccc3nc(C)cc(N(C)C)c3c2)nc(Nc2ccc3nc(C)cc(N(C)C)c3c2)n1 [Example 148] | 12 | 5.82 |  |
| Cc1cc(N(C)C)c2cc(Nc3nc(Nc4ccc5nc(C)cc(N(C)C)c5c4)nc(N4CCC[C@H]4CN4CCCC4)n3)ccc2n1 [Example 149, 2,4-bis(4-dimethylamino-2-methylquinolin-6-yl)amino-6-[2(S)-(pyrrolidin-1-yl)methylpyrrolidin-1-yl]-[1,3,5]triazine] | 12.5 | 7.02 |  |
| CC(=O)NCCNc1nc(Nc2ccc3nc(C)cc(N(C)C)c3c2)nc(Nc2ccc3nc(C)cc(N(C)C)c3c2)n1 [Example 150] | 6.5 | 5.61 |  |
